Test results taken from the supplement of paper PMC10307832.

Key:
Experiment in all cases: relative viability (nuclei count vs DMSO), 5 days (fraction); higher = more cells survive
[1] = compound: CC1=C(C(=NN1)C)CC2=C(C3=C(S2)N(C(=O)N(C3=O)C)CC(C)C)C(=O)N4C[C@@H](CO4)O + CC1(C)CCC(c2ccc(Cl)cc2)=C(CN2CCN(c3ccc(C(=O)NS(=O)(=O)c4ccc(N[C@H](CCN5CCOCC5)CSc5ccccc5)c(S(=O)(=O)C(F)(F)F)c4)cc3)CC2)C1 [Navitoclax] (partner 0.5 µM)
How it was run: (§1)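 Cells from lung cancer lines were seeded into 1536-well plates and, one day later, dosed by pin tool. Treatments were either a single drug or a fixed dose of an anchor drug with five library-drug doses (not always all listed) in √10 steps. After 5 days, nuclei were stained in a one-step fixation (final 0.05% Triton X-100, 1% formaldehyde, 1 ug/ml Hoechst) and counted on 4× images, and relative viability is the treated-to-vehicle nuclei ratio, as the median of duplicate plates.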

[2] = compound: CC1=C(C(=NN1)C)CC2=C(C3=C(S2)N(C(=O)N(C3=O)C)CC(C)C)C(=O)N4C[C@@H](CO4)O + N=C(N)NC(=N)NCCc1ccccc1 [Phenformin] (partner 250 µM)
How it was run: as §1

IDH-C35 + Luminespib = compound: Cc1ccccc1C(C(=O)NC1CCCCC1)N(C(=O)Cn1ccnc1C)c1cccc(F)c1 [IDH-C35] + CCNC(=O)c1noc(-c2cc(C(C)C)c(O)cc2O)c1-c1ccc(CN2CCOCC2)cc1 [Luminespib] (partner 0.01 µM)
How it was run: as §1

IDH-C35 + Alpelisib = compound: Cc1ccccc1C(C(=O)NC1CCCCC1)N(C(=O)Cn1ccnc1C)c1cccc(F)c1 [IDH-C35] + Cc1nc(NC(=O)N2CCC[C@H]2C(N)=O)sc1-c1ccnc(C(C)(C)C(F)(F)F)c1 [Alpelisib] (partner 2 µM)
How it was run: as §1

| Cell Line | relative viability ([1]; first compound 0.0025 µM) | relative viability ([1]; first compound 0.007906 µM) | relative viability ([1]; first compound 0.025 µM) | relative viability ([1]; first compound 0.07906 µM) | relative viability ([1]; first compound 0.25 µM) | relative viability ([2]; first compound 0.0025 µM) | relative viability ([2]; first compound 0.007906 µM) | relative viability ([2]; first compound 0.025 µM) | relative viability ([2]; first compound 0.07906 µM) | relative viability ([2]; first compound 0.25 µM) | relative viability (IDH-C35 + Luminespib; first compound 0.08 µM) | relative viability (IDH-C35 + Luminespib; first compound 0.253 µM) | relative viability (IDH-C35 + Luminespib; first compound 0.8 µM) | relative viability (IDH-C35 + Luminespib; first compound 2.53 µM) | relative viability (IDH-C35 + Luminespib; first compound 8 µM) | relative viability (IDH-C35 + Alpelisib; first compound 0.08 µM) | relative viability (IDH-C35 + Alpelisib; first compound 0.253 µM) | relative viability (IDH-C35 + Alpelisib; first compound 0.8 µM) | relative viability (IDH-C35 + Alpelisib; first compound 2.53 µM) | relative viability (IDH-C35 + Alpelisib; first compound 8 µM) |
| --- | --- | --- | --- | --- | --- | --- | --- | --- | --- | --- | --- | --- | --- | --- | --- | --- | --- | --- | --- | --- |
| LU99A | 0.74 | 0.887 | 0.76 | 0.845 | 0.458 | 0.84 | 1.06 | 0.798 | 0.898 | 0.927 | 0.244 | 0.286 | 0.239 | 0.236 | 0.25 | 0.49 | 0.514 | 0.553 | 0.517 | 0.562 |
| LXF-289 | 0.885 | 0.904 | 0.94 | 0.935 | 1 | 0.525 | 0.52 | 0.532 | 0.537 | 0.556 | 0.512 | 0.631 | 0.654 | 0.697 | 0.676 | 1.04 | 1.03 | 1.01 | 0.994 | 1.03 |
| NCI-H23 | 0.908 | 0.904 | 0.807 | 1.02 | 0.901 | 0.794 | 0.858 | 0.839 | 0.804 | 0.774 | 0.207 | 0.224 | 0.201 | 0.202 | 0.227 | 0.622 | 0.591 | 0.648 | 0.73 | 0.834 |
| NCI-H322M | 1.22 | 1.18 | 1.18 | 1.29 | 1.06 | 0.825 | 0.673 | 0.793 | 0.93 | 0.829 | 0.921 | 0.784 | 0.826 | 0.833 | 0.942 | 0.878 | 0.818 | 0.743 | 0.806 | 0.837 |
| NCI-H441 | 0.473 | 0.577 | 0.686 | 0.763 | 0.678 | 0.902 | 0.943 | 0.799 | 0.847 | 0.865 | 0.26 | 0.306 | 0.293 | 0.293 | 0.399 | 0.649 |  | 0.688 | 0.684 | 0.754 |
| NCI-H460 | 1.19 | 1.26 | 0.994 | 1.13 | 1.34 | 0.526 | 0.586 | 0.491 | 0.553 | 0.515 | 0.0343 | 0.0424 | 0.0346 | 0.0408 | 0.0379 | 0.472 | 0.504 | 0.545 | 0.549 | 0.439 |
| NCI-H520 | 1.22 | 1.16 | 0.654 | 0.558 | 0.683 | 0.501 | 0.167 | 0.192 | 0.179 | 0.198 | 0.26 | 0.189 | 0.27 | 0.21 | 0.269 | 0.71 | 0.808 | 0.891 | 0.845 | 0.954 |
| NCI-H596 | 1.06 | 1.16 | 0.931 | 1.01 | 1.16 | 0.803 | 0.764 | 0.73 | 0.809 | 1.05 | 1.04 | 0.974 | 1.22 |  | 0.97 | 0.552 | 0.48 | 0.555 | 0.471 | 0.446 |
| NCI-H647 | 1.15 | 1.43 | 1.01 | 1.32 | 1.42 | 0.655 | 0.369 | 0.393 | 0.555 | 0.53 | 0.146 | 0.256 | 0.357 | 0.241 | 0.126 | 1.14 | 1.23 | 1.14 | 1.12 | 0.917 |
| NCI-H727 | 0.44 | 0.36 | 0.344 | 0.364 | 0.439 | 0.424 | 0.504 | 0.486 | 0.489 | 0.372 | 0.27 | 0.398 | 0.39 | 0.407 | 0.33 | 0.536 | 0.719 | 0.543 | 0.582 | 0.83 |
| NCI-H838 | 1.22 | 1.24 | 1.12 | 1.16 | 1.25 | 0.567 | 0.594 | 0.433 | 0.453 | 0.489 | 0.319 | 0.3 | 0.266 | 0.331 | 0.24 | 1.03 | 0.92 | 0.951 | 0.93 | 0.949 |
| NCI-H1355 | 0.955 | 0.96 | 1.02 | 0.853 | 0.894 | 0.493 | 0.473 | 0.429 | 0.481 | 0.453 | 0.703 | 0.72 | 0.693 | 0.722 | 0.72 | 0.894 | 0.787 | 0.801 | 0.864 | 0.849 |
| NCI-H1395 | 1.09 | 0.931 | 1.01 | 0.859 | 0.886 | 0.336 | 0.316 | 0.298 | 0.314 | 0.312 | 0.757 | 0.655 | 0.744 | 0.763 | 0.714 | 1.12 | 0.889 | 1.09 | 1.04 | 1.05 |
| NCI-H1437 | 1.16 | 1.2 | 1.08 | 1.1 | 1.09 | 0.318 | 0.313 | 0.301 | 0.297 | 0.306 | 1.08 | 1.04 | 1.06 | 1.06 | 1.1 | 0.961 | 0.992 | 0.896 | 0.933 | 0.966 |
| NCI-H1651 | 1.11 | 1.06 | 1.01 | 0.912 | 1.05 | 0.374 | 0.214 | 0.259 | 0.239 | 0.261 | 0.861 | 0.6 | 0.67 | 0.797 | 0.716 | 1.03 | 0.812 | 0.937 | 0.945 | 1 |
